Target: Acetylcholinesterase (Homo sapiens, UniProt P22303)
Test: Inhibition of human AChE

Acetylcholinesterase, sequence (P22303 whole entry): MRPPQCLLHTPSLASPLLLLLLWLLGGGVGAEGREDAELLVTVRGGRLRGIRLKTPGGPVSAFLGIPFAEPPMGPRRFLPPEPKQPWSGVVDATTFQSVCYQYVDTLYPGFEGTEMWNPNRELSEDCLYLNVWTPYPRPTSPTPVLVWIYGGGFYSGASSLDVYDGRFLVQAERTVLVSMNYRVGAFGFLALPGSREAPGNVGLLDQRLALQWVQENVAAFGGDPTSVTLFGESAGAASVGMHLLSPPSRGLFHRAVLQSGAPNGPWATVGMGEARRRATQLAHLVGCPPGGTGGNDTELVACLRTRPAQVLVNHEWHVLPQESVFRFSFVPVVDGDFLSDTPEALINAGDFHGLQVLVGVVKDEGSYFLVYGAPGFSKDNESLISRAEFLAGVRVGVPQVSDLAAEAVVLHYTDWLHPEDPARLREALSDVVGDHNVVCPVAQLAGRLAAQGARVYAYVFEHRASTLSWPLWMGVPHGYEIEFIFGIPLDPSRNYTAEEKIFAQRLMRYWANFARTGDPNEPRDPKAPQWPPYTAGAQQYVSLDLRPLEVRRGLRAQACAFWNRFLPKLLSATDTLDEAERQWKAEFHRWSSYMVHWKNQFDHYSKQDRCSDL

COc1ccc(-c2cc3c(c(=O)o2)C[C@@H]2[C@@]4(C)CCC(=O)C(C)(C)[C@@H]4CC[C@@]2(C)O3)cc1
IC50: > 100000 nM

COc1cc(-c2cc3c(c(=O)o2)C[C@]2(O)[C@@]4(C)C(=O)C=CC(C)(C)[C@]4(O)CC[C@@]2(C)O3)cc(OC)c1O
IC50: 6.8 nM

COc1ccc(-c2cc3c(c(=O)o2)C[C@@H]2[C@@]4(C)CC[C@H](O)C(C)(C)[C@@H]4CC[C@@]2(C)O3)cc1
IC50: > 100000 nM

COc1ccc(-c2cc3c(c(=O)o2)C[C@]2(O)[C@@]4(C)[C@@H](O)C[C@@H](OC(C)=O)C(C)(C)[C@]4(O)CC[C@@]2(C)O3)cc1
IC50: > 100000 nM

COc1ccc(-c2cc3c(c(=O)o2)C[C@H]2[C@@](C)(CC[C@@]4(O)C(C)(C)C(=O)CC[C@]24C)O3)cc1
IC50: 2500 nM

COc1ccc(-c2cc3c(c(=O)o2)C[C@H]2[C@@](C)(CC[C@@]4(O)C(C)(C)[C@H](O)CC[C@]24C)O3)cc1
IC50: > 100000 nM

COc1ccc(-c2cc3c(c(=O)o2)C[C@]2(O)[C@@]4(C)CC[C@@H](OC(C)=O)C(C)(C)[C@]4(O)CC[C@@]2(C)O3)cc1
IC50: 3500 nM

COc1cc(-c2cc3c(c(=O)o2)C[C@]2(O)[C@@]4(C)C(=O)C=CC(C)(C)[C@]4(O)CC[C@@]2(C)O3)cc(OC)c1OC [TERRITREM B]
IC50: 7.6 nM
